Reference: patent US10059655B2, “Lipids and lipid compositions for the delivery of active agents” (priority 2013, dated 2018)

Assays:
[1] = tested on: hLeptin; experiment: Human leptin in mouse plasma (ELISA) after subcutaneous injection of encapsulated leptin mRNA; type: in vivo; conditions: C57 mice
Description: Human leptin in mouse plasma was measured by ELISA. Antibodies purchased from the R&D Systems duoset (Cat# DY398E, part#840279 for capture antibody and part#840280 for detection antibody) were reconstituted using PBS and titered, again using PBS. The capture antibody was coated at 4 ug/ml in 30 ul/well on a white Nunc® Maxisorp 384 well plate (Cat#460372). After an overnight incubation at room temperature the capture antibody was aspirated and the plate blocked for 2 hours at room temperature with 90 ul/well of KPL milk blocker (Cat#50-82-00). Once the incubation was completed the plate was aspirated and recombinant standards and samples were added to the plate at 30 ul/well for 2 hours at 37° C. while shaking at 600 rpm. Sample/standard dilutions were made using casein sample diluent. Washing/aspiration 3 times with 100 ul/well followed, using Teknova plate wash solution (Cat# P1192). […] The plate was quickly read using a SpectramaxM5 plate reader with a 50 ms integration time. […]
Prior to subcutaneous injection, mouse body weights were recorded and diet weighted, with mice grouped according to their body weights. […]
On day 0, animals were weighed and sorted according to average body weight. ice were dosed at 9 AM and blood was taken at 9 AM on day 0. Blood was also taken at 9 AM on each of days 1 and 2 and assessed for leptin protein levels. Body weight and food intake were also recorded.

[2] = tested on: plasma Factor VII enzyme activity; experiment: Factor VII Activity Assay after IV dosing of formulated Factor VII siRNA in mice; type: in vivo, mouse; conditions: 0.03 mpk, CD-1 mice, about 48 hours after injection
Description: Female CD-1 mice were received from Harlan Labs and maintained on standard lab chow and water ad libitum. The animals weighed approximately 25 gr at time of dosing. Formulated Factor VII siRNA was administered as a single dose intravenously via the lateral tail vein. Approximately 48 hours after injection, the mice were euthanized by CO2 inhalation followed by exsanguination through the vena cava.
Plasma collected from injected mice was assayed for Factor VII enzyme activity using the Biophen FVII kit from Hyphen Biomedical (catalog number 221304). An assay standard curve was prepared using pooled plasma aliquots from the vehicle control animals. All samples were diluted to fall within the linear range of the standard curve and Factor VII activity relative to control plasma was reported.
Lipid nanoparticles comprising lipid compounds of formula (I) and the FVII siRNA duplex sequence listed above were tested in the Factor VII Activity Assay. The results of this assay are given in Table 3 4 below as a percent knock down of plasma Factor VII enzyme activity at a dose of 0.3 mg/kg and 0.03 mg/kg.

[3] = Measurement of siRNA encapsulation (SYBR Gold fluorescence); type: physicochemical; conditions: for % Encap.: FVII siRNA; for % encapsulation siRNA FVII: FVII siRNA in LNP
Description: The lipid nanoparticles (LNPs) were formed by mixing equal volumes of lipids dissolved in alcohol with siRNA dissolved in a citrate buffer by an impinging jet process. The lipid solution contains a cationic lipid compound of the invention, a helper lipid (cholesterol), an optional neutral lipid (DSPC) and a stealth lipid (S010, S024, S027, or S031) at a concentration of 8-16 mg/mL with a target of 12 mg/mL in an alcohol. The siRNA to total lipid ratio is approximately 0.05 (wt/wt). Where a LNP formulation contains four lipid components, the molar ratios of the lipids ranges from 20 to 70 mole percent for the cationic lipid with a target of 40-60, the mole percent of helper lipid ranges from 20 to 70 with a target of 30 to 50, the mole percent of neutral lipid ranges from 0-30, the mole percent of PEG lipid has a range from 1 to 6 with a target of 2 to 5. The concentration of siRNA solution ranges from 0.7 to 1.0 mg/mL with a target of 0.8 to 0.9 mg/mL in a sodium citrate: sodium chloride buffer pH 4-6, with a target of 4.5-5.5. The LNPs are formed by mixing equal volumes of lipid solution in ethanol with siRNA dissolved in a citrate buffer by an impinging jet process through a mixing device with ID ranging from 0.25 to 2.0 mm at a flow rate from 10 to 640 mL/min. The mixed LNP solution is held at room temperature for 0-24 hrs prior to a dilution step. The solution is then concentrated and diafiltered with suitable buffer by ultrafiltration process using membranes with a MW cutoff from 30 to 500 KD. The final product is sterile filtered and stored at 4° C.
SYBR Gold flourescence reagent is used for the determination of siRNA encapsulation in the DLP's. DLP's with and without triton x-100 are used to determine the free siRNA and total siRNA amounts. DLP's samples with and without triton X-100 were excited at 485 nm and flourescence emission is measured at 530 nm. Encapsulation efficiency is calculated based on the following formula: Encapsulation efficiency: [(free siRNA concentration−total siRNA concentration)/(total siRNA concentration)]×100% Encapsulation Data

[4] = tested on: hFIX; experiment: Human Factor IX ELISA after IV injection of encapsulated hFIX mRNA; type: in vivo; conditions: 0.12 mpk, C57 mice, @ 24 h
Description: An sheep anti-human Factor IX antibody (Cat# FIX-EIA-C) from Enzyme Research Laboratories is coated on 384-well white microtiter plates overnight at a concentration of 5 ug/ml, then blocked for assay using KPL blocker (Cat#50-82-00). Then, plasma samples are diluted in a casein-based sample diluent and incubated on the plate with biological controls and a standard curve created from recombinant protein (Cat#HCIX-0040). The plate is then washed to remove unbound material. A biotinylated sheep anti-human Factor IX antibody (Cat# FIX-EIA-D) from Enzyme Research Laboratories is then added to the plate at 0.6 ug/ml to detect human Factor IX protein bound by the capture antibody. The plate is washed again and a streptavidin-conjugated horseradish peroxidase reagent (Cat#21140) diluted 1:1250, is incubated on the plate. A third wash step is performed and chemiluminescent reagents (Cat#1859678 & Cat#18596789) are combined and added to the plate and immediately read by a capable plate reader using all wavelengths and a 50 millisecond integration time. Unknown samples are interpolated off the human recombinant Factor IX standard curve.

Row | SMILES | Expression of protein following SC injection of encapsulated mRNA: hLeptin ([1]; 0.4 mpk) [ng/mL] | FVII knock-down (%) following IV injection of encapsulated siRNA [2] [%/0.03 mpk] | % Encap. [3] [%] | % encapsulation siRNA FVII [3] [%] | Expression of protein following IV injection of encapsulated mRNA: hFIX [4] [ng/mL] | Expression of protein following SC injection of encapsulated mRNA: hLeptin ([1]; 0.6 mpk) [ng/mL]
1 | CCCCC/C=C\C/C=C\CCCCCCCC(=O)OCC(COC(=O)CCCCCCC/C=C\C/C=C\CCCCC)COC(=O)C1(C)CCN(C)C1 (stereo not shown) [Example 1, (9Z,9′Z,12Z,12′Z)-2-(((1,3-dimethylpyrrolidine-3-carbonyl)oxy)methyl)propane-1,3-diyl bis(octadeca-9,12-dienoate)] | 2.5 | 69 | 85.1 | 85.1 | 147.7 | –
2 | CCCCC/C=C\C/C=C\CCCCCCCC(=O)OCC(COC(=O)CCC(OCCCCCCCC)OCCCCCCCC)COC(=O)OCCCN(CC)CC (stereo not shown) [Example 13, (9Z,12Z)-3-((4,4-bis(octyloxy)butanoyl)oxy)-2-((((3-(diethylamino)propoxy)carbonyl)oxy)methyl)propyl octadeca-9,12-dienoate] | – | 97 | 88.1 | 88.1 | 292.7 | –
3 | CCCCC/C=C\C/C=C\CCCCCCCC(=O)OCC(COC(=O)CCC(OCCCCCCCC)OCCCCCCCC)COC(=O)OCC1CCCN(CC)C1 (stereo not shown) [Example 15, (9Z,12Z)-3-((4,4-bis(octyloxy)butanoyl)oxy)-2-(((((1-ethylpiperidin-3-yl)methoxy)carbonyl)oxy)methyl)propyl octadeca-9,12-dienoate] | – | – | – | – | – | 6.2
